These results are taken from patent publication US20170355705A1 (GlaxoSmithKline Intellectual Property (No.2) Limited, priority 2014, published 2017).

The target in this experiment is T1, SIRT1 (Homo sapiens, UniProt Q96EB6).
T1 sequence (Q96EB6 1-747): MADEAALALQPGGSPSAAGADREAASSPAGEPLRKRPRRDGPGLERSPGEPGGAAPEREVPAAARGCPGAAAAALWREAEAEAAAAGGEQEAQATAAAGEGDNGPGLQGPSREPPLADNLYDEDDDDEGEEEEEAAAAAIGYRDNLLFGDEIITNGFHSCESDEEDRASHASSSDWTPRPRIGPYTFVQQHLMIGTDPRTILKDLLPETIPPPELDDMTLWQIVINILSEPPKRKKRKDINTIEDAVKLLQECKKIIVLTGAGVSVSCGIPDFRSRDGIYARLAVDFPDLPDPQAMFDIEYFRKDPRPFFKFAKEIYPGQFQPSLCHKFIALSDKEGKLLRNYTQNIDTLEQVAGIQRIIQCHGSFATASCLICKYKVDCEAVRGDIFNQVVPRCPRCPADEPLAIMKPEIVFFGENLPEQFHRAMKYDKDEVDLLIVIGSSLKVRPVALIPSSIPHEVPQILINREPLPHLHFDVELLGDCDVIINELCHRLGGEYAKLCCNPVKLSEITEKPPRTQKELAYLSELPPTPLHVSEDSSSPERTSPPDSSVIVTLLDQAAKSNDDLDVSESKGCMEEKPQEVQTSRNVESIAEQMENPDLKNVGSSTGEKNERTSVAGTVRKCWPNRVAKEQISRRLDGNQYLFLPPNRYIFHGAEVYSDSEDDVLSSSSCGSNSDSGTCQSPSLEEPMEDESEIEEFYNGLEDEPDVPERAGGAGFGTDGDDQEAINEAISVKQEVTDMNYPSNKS
The experiment is described as follows: Trp mass spectrometry assay of SIRT1 activity (EC1.5, percent maximum activation). Type of experiment: biochemical. The note with it: Trp mass spectrometry assay; for TRP Activity (EC1.5): EC1.5 = concentration giving 150% activation of SIRT1. A digest of the protocol:
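N-terminal His-tagged human SIRT1 from E. coli BL21(DE3) was incubated 25 min with a 5TMR-labelled, p53-derived Trp peptide and NAD plus varying compound concentrations, then quenched with formic acid. Mass spectrometry quantified OAADPR or deacetylated peptide versus compound-free control, giving EC1.5 and percent maximum activation.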

Setting [1] is: percent maximum activation of SIRT1.
Setting [2] is: 0.5 μM peptide substrate, 120 μM βNAD+, 10 nM SIRT1, 25 minutes at 25° C.

As for `Cc1cc(-c2ccc3c(n2)N(C(=O)NCCc2ccccn2)[C@H]2CCN3C2)ccn1.Cl` [Example 196, (4S)-7-(2-methylpyridin-4-yl)-N-(2-(pyridin-2-yl)ethyl)-3,4-dihydro-1,4-methanopyrido[2,3-b][1,4]diazepine-5(2H)-carboxamide hydrochloride], the “TRP Activity (EC1.5)” value was “C (EC1.5>25 μM)”. For the same molecule, under setting [1], the “TRP MAX RESP (percent maximum fold activation)” value was “B (Fold Activation <150%)”.
In the case of `O=C(Nc1cnccn1)N1c2nc(N3CCNCC3)ccc2N2CC[C@H]1C2` [Example 197, (4S)-7-(piperazin-1-yl)-N-(pyrazin-2-yl)-3,4-dihydro-1,4-methanopyrido[2,3-b][1,4]diazepine-5(2H)-carboxamide], the “TRP Activity (EC1.5)” value is “C (EC1.5>25 μM)”. In addition, the “TRP MAX RESP (percent maximum fold activation)” value under setting [1] was “B (Fold Activation <150%)”.
As for `CC1CCN(c2ccc3c(n2)N(C(=O)Nc2cnccn2)[C@H]2CCN3C2)CC1` [Example 198, (4S)-7-(4-methylpiperidin-1-yl)-N-(pyrazin-2-yl)-3,4-dihydro-1,4-methanopyrido[2,3-b][1,4]diazepine-5(2H)-carboxamide], the “TRP Activity (EC1.5)” value is listed as “B (EC1.5 1-25 μM)”. Also, under setting [1], the “TRP MAX RESP (percent maximum fold activation)” value is “A (Fold activation ≧150%)”.
Consider `CCn1cc(-c2nc3c(cc2Cl)N2CC[C@@H](C2)N3C(=O)Nc2ccnc(OC[C@@H](O)CO)c2)cn1` [Example 199, (4S)-8-chloro-N-(2-((S)-2,3-dihydroxypropoxy)pyridin-4-yl)-7-(1-ethyl-1H-pyrazol-4-yl)-3,4-dihydro-1,4-methanopyrido[2,3-b][1,4]diazepine-5(2H)-carboxamide], for which the “TRP Activity (EC1.5)” value is “B (EC1.5 1-25 μM)”. For the same molecule, the “TRP MAX RESP (percent maximum fold activation)” value under setting [1] was “A (Fold activation ≧150%)”.
Take `Cc1ccc(-c2ccc3c(n2)N(C(=O)Nc2cnccn2)[C@H]2CCN3C2)c(C)n1` [Example 200, (4S)-7-(2,6-dimethylpyridin-3-yl)-N-(pyrazin-2-yl)-3,4-dihydro-1,4-methanopyrido[2,3-b][1,4]diazepine-5(2H)-carboxamide]: the “TRP Activity (EC1.5)” value is “B (EC1.5 1-25 μM)”. For the same molecule, the “TRP MAX RESP (percent maximum fold activation)” value under setting [1] is on record as “A (Fold activation ≧150%)”.
With `Cc1ccc(-c2ccc3c(n2)N(C(=O)Nc2cccnc2)[C@H]2CCN3C2)c(C)n1` [Example 201, (4S)-7-(2,6-dimethylpyridin-3-yl)-N-(pyridin-3-yl)-3,4-dihydro-1,4-methanopyrido[2,3-b][1,4]diazepine-5(2H)-carboxamide], under setting [2], the “TRP Activity (EC1.5, concentration of test compound that results in 150% activation of SIRT1)” value is “B (EC1.5 1-25 μM)” and the “TRP MAX RESP (percent maximum fold activation)” value is recorded as “A (Fold activation ≧150%)”.
`Cc1cc(-c2ccc3c(n2)N(C(=O)Nc2nc4scc(C)n4n2)[C@H]2CCN3C2)ccn1` [Example 202, (4S)-7-(2-methylpyridin-4-yl)-N-(6-methylthiazolo[3,2-b][1,2,4]triazol-2-yl)-3,4-dihydro-1,4-methanopyrido[2,3-b][1,4]diazepine-5(2H)-carboxamide]: under setting [2], the “TRP Activity (EC1.5, concentration of test compound that results in 150% activation of SIRT1)” value is reported as “B (EC1.5 1-25 μM)” and the “TRP MAX RESP (percent maximum fold activation)” value is given as “A (Fold activation ≧150%)”.
As for `O=C(Nc1cccnc1)N1c2nc(N3CCOC[C@@H]3CO)ccc2N2CC[C@H]1C2` [Example 203, (4S)-7-((S)-3-(hydroxymethyl)morpholino)-N-(pyridin-3-yl)-3,4-dihydro-1,4-methanopyrido[2,3-b][1,4]diazepine-5(2H)-carboxamide], under setting [2], the “TRP Activity (EC1.5, concentration of test compound that results in 150% activation of SIRT1)” value was “C (EC1.5>25 μM)” and the “TRP MAX RESP (percent maximum fold activation)” value was “B (Fold Activation <150%)”.
In the case of `C[C@@H]1COCCN1c1ccc2c(n1)N(C(=O)Nc1cccnc1)[C@H]1CCN2C1` [Example 204, (4S)-7-((R)-3-methylmorpholino)-N-(pyridin-3-yl)-3,4-dihydro-1,4-methano-pyrido[2,3-b][1,4]diazepine-5(2H)-carboxamide], under setting [2], the “TRP Activity (EC1.5, concentration of test compound that results in 150% activation of SIRT1)” value is listed as “B (EC1.5 1-25 μM)” and the “TRP MAX RESP (percent maximum fold activation)” value is listed as “A (Fold activation ≧150%)”.
On to `Cc1ccc(-c2ccc3c(n2)N(C(=O)Nc2cncc(OC[C@@H](O)CO)n2)[C@H]2CCN3C2)cn1` [Example 205, (4S)-N-(6-((S)-2,3-dihydroxypropoxy)pyrazin-2-yl)-7-(6-methylpyridin-3-yl)-3,4-dihydro-1,4-methanopyrido[2,3-b][1,4]diazepine-5(2H)-carboxamide], for which, under setting [2], the “TRP Activity (EC1.5, concentration of test compound that results in 150% activation of SIRT1)” value is listed as “B (EC1.5 1-25 μM)” and the “TRP MAX RESP (percent maximum fold activation)” value is given as “A (Fold activation ≧150%)”.
As for `CN1CCN(c2ccc3c(n2)N(C(=O)Nc2cnccn2)[C@H]2CCN3C2)CC1` [Example 206, (4S)-7-(4-methylpiperazin-1-yl)-N-(pyrazin-2-yl)-3,4-dihydro-1,4-methanopyrido[2,3-b][1,4]diazepine-5(2H)-carboxamide], under setting [2], the “TRP Activity (EC1.5, concentration of test compound that results in 150% activation of SIRT1)” value was “B (EC1.5 1-25 μM)” and the “TRP MAX RESP (percent maximum fold activation)” value is listed as “A (Fold activation ≧150%)”.
The like results for `O=C(Nc1cnccn1)N1c2nc(-c3ccc(C(F)(F)F)nc3)ccc2N2CC[C@H]1C2` [Example 208, (4S)-N-(pyrazin-2-yl)-7-(6-(trifluoromethyl)pyridin-3-yl)-3,4-dihydro-1,4-methanopyrido[2,3-b][1,4]diazepine-5(2H)-carboxamide] were, in that order, “B (EC1.5 1-25 μM)” and “A (Fold activation ≧150%)”.
Consider `Cc1ccc(-c2ccc3c(n2)N(C(=O)Nc2cccc4cnccc24)[C@H]2CCN3C2)cn1` [Example 209, (4S)-N-(isoquinolin-5-yl)-7-(6-methylpyridin-3-yl)-3,4-dihydro-1,4-methanopyrido[2,3-b][1,4]diazepine-5(2H)-carboxamide], for which, under setting [2], the “TRP Activity (EC1.5, concentration of test compound that results in 150% activation of SIRT1)” value is reported as “B (EC1.5 1-25 μM)” and the “TRP MAX RESP (percent maximum fold activation)” value is listed as “A (Fold activation ≧150%)”.
`Cc1cc(-c2nc3c(cc2Cl)N2CC[C@@H](C2)N3C(=O)Nc2cccnc2)ccn1` [Example 210, (9S)-4-chloro-5-(2-methylpyridin-4-yl)-N-(pyridin-3-yl)-1,6,8-triazatricyclo[7.2.1.0{2,7}]dodeca-2,4,6-triene-8-carboxamide]: under setting [2], the “TRP Activity (EC1.5, concentration of test compound that results in 150% activation of SIRT1)” value was “B (EC1.5 1-25 μM)” and the “TRP MAX RESP (percent maximum fold activation)” value was “A (Fold activation ≧150%)”.
Turning to `CC1(C)CN(c2ccc3c(n2)N(C(=O)Nc2cnccn2)[C@H]2CCN3C2)CCO1` [Example 211, (4S)-7-(2,2-dimethylmorpholino)-N-(pyrazin-2-yl)-3,4-dihydro-1,4-methanopyrido[2,3-b][1,4]diazepine-5(2H)-carboxamide], under setting [2], the “TRP Activity (EC1.5, concentration of test compound that results in 150% activation of SIRT1)” value is reported as “A (EC1.5<1 μM)” and the “TRP MAX RESP (percent maximum fold activation)” value is recorded as “A (Fold activation ≧150%)”.
For `Cc1cc(-c2ccc3c(n2)N(C(=O)Nc2cnccn2)[C@H]2CCN3C2)cnn1` [Example 212, (4S)-7-(6-methylpyridazin-4-yl)-N-(pyrazin-2-yl)-3,4-dihydro-1,4-methanopyrido[2,3-b][1,4]diazepine-5(2H)-carboxamide], under setting [2], the “TRP Activity (EC1.5, concentration of test compound that results in 150% activation of SIRT1)” value was “B (EC1.5 1-25 μM)” and the “TRP MAX RESP (percent maximum fold activation)” value is reported as “A (Fold activation ≧150%)”.
Turning to `Cc1ncc(-c2ccc3c(n2)N(C(=O)Nc2cnccn2)[C@H]2CCN3C2)s1` [Example 214, (4S)-7-(2-methylthiazol-5-yl)-N-(pyrazin-2-yl)-3,4-dihydro-1,4-methanopyrido[2,3-b][1,4]diazepine-5(2H)-carboxamide], under setting [2], the “TRP Activity (EC1.5, concentration of test compound that results in 150% activation of SIRT1)” value is reported as “B (EC1.5 1-25 μM)” and the “TRP MAX RESP (percent maximum fold activation)” value is listed as “A (Fold activation ≧150%)”.
Turning to `COC(=O)c1cc(-c2ccc3c(n2)N(C(=O)Nc2cnccn2)[C@H]2CCN3C2)ccn1` [Example 215, methyl 4-((4S)-5-(pyrazin-2-ylcarbamoyl)-2,3,4,5-tetrahydro-1,4-methanopyrido[2,3-b][1,4]diazepin-7-yl)picolinate], under setting [2], the “TRP Activity (EC1.5, concentration of test compound that results in 150% activation of SIRT1)” value is “B (EC1.5 1-25 μM)” and the “TRP MAX RESP (percent maximum fold activation)” value is reported as “A (Fold activation ≧150%)”.
For `O=C(Nc1cnccn1)N1c2nc(-c3ccnc(C(F)F)c3)ccc2N2CC[C@H]1C2` [Example 216, (4S)-7-(2-(difluoromethyl)pyridin-4-yl)-N-(pyrazin-2-yl)-3,4-dihydro-1,4-methanopyrido[2,3-b][1,4]diazepine-5(2H)-carboxamide], under setting [2], the “TRP Activity (EC1.5, concentration of test compound that results in 150% activation of SIRT1)” value is on record as “A (EC1.5<1 μM)” and the “TRP MAX RESP (percent maximum fold activation)” value is reported as “A (Fold activation ≧150%)”.
